Measurements taken from US5902826A, “Platinum (IV) complex and pharmaceutical composition comprising the same” (SS Pharmaceutical Co., Ltd., priority 1997, dated 1999).

How the values were obtained:
[1] = tested on: mouse M5076 tumor (M5076 reticulosarcoma); assay: Antitumor effect on mouse M5076 tumor (M5076 reticulosarcoma), s.c.-p.o.; format: in vivo; conditions: for TI (therapeutic index): calculated from LD50 (single i.p.) and ID50 (p.o.); for dosage of GImax (in parentheses): dosage giving GImax, no mortal case; for dosage of GImax (in parentheses) / ID50 (dosage by which the GI value after 5 administrations shows 50%): p.o. once a day for 5 days; for GImax (maximum growth inhibition rate in the dosage range by which no mortal case can be found): male BDF1 mouse, 1×10^6 cells s.c., drug p.o. once a day for 5 days, 30 days of observation, average tumor weights vs non-treated group; for ID50 (dosage by which the GI value after 5 administrations shows 50%): calculated from linear regression line of GI at each dosage
Description: Test on antitumor effect on mouse M5076 tumor
A total of 1×10^6 cells of mouse M5076 tumor were transplanted subcutaneously (s.c.) of a 6-week age male BDF1 mouse, a drug (compound of the present invention) was administered orally (p.o.) once a day for 5 days starting on the next day and then, after 30 days of observation, growth inhibition rate (GI) was calculated from the average tumor weights in the drug-treated group and the non-treated group. […] Each of the drugs to be tested was prepared just before its use by dissolving or suspending the drug (compound of the present invention) in olive oil using a handy sonicator. The dosage was 0.1 ml per 10 g mouse body weight. In Table 1, GImax is the maximum value (%) of GI in the dosage range by which no mortal case can be found, and its dosage (mg/kg) is shown in parentheses.

[2] = LD50 (50% lethal dose by single intraperitoneal administration); format: in vivo, mouse; conditions: 50% lethal dose by single intraperitoneal administration, obtained at the time of dose setting
[3] = background statement, derivative of cisplatin; cited from earlier work
[4] = background statement, cited from earlier work

| Compound | TI (therapeutic index) [1] | dosage of GImax (in parentheses) [1] | GImax (maximum growth inhibition rate in the dosage range by which no mortal case can be found) [1] | ID50 (dosage by which the GI value after 5 administrations shows 50%) [1] | LD50 [2] | solubility in water [3] | renal toxicity ([4]; derivative of cisplatin) | nephropathy as a side effect [4] |
| --- | --- | --- | --- | --- | --- | --- | --- | --- |
| 1,1-cyclobutanedicarboxylato trans-dihydroxo (1,3-diamino-2-propanol)platinum (IV) [Compound 1] | > 25.0 | 32.0 mg/kg | 95.6% | < 8.0 mg/kg | > 200.0 mg/kg | – | – | – |
| N.N.O=C([O-])C1(C(=O)[O-])CCC1.[Pt+2] [Carboplatin, carboplatin, reference compound] | 2.0 | 256.0 mg/kg | 75.3% | 119.9 mg/kg | 245.0 mg/kg | increased solubility in water | reduced renal toxicity | – |
| N.N.[Cl][Pt][Cl] [Cisplatin, cisplatin, reference compound] | – | 8.0 mg/kg | 74.5% | 3.2 mg/kg | – | – | – | sometimes causes serious nephropathy |
| O=C(OC1C[NH2+][Pt-2]2([O]C(=O)C(F)(F)F)([O]C(=O)C(F)(F)F)([NH2+]C1)[O]C(=O)C1(CCC1)C(=O)[O]2)C(F)(F)F (stereo not drawn) [Compound 11, 1,1-cyclobutanedicarboxylato trans-bis(trifluoroacetato) (O-trifluoroacetyl-1,3-diamino-2-propanol)platinum (IV)] | 17.3 | 32.0 mg/kg | 86.5% | 10.2 mg/kg | 176.5 mg/kg | – | – | – |
| O=C([O][Pt-2]12([O]C(=O)C(F)(F)F)([NH2+]CC(O)C[NH2+]1)[O]C(=O)C1(CCC1)C(=O)[O]2)C(F)(F)F (stereo not drawn) [Compound 18, 1,1-cyclobutanedicarboxylato trans-bis(trifluoroacetato) (1,3-diamino-2-propanol)platinum (IV)] | 18.4 | 32.0 mg/kg | 95.6% | 9.6 mg/kg | 176.8 mg/kg | – | – | – |
| trans-bis (acetato) 1,1-cyclobutanedicarboxylato (1,3-diamino-2-propanol) platinum (IV) [Compound 5] | 9.2 | 64.0 mg/kg | 61.4% | 38.4 mg/kg | 353.0 mg/kg | – | – | – |
